Consider two molecules from US6337333B1, “Method of treating autoimmune disease with fludarabine-5′-monophosphate” (priority 1992, dated 2002).

The subject of data set [1] is human T-lymphoblastoid cell lines. The conditions noted are these: cited from earlier work.
The subject of data set [2] is CD20 positive B lymphocytes. The settings on record: 48 hr culture with and without PWM, dose range 0.1-5.0 μg/ml, FIG. 3.
Protocol: In FIG. 3, freshly isolated PBMC enriched for CD20 positive B lymphocytes (50% CD19, 45% CD20, 10% CD20/CD5 and 30% CD3/CD5) were cultured over 48 hr with various concentrations of FLP with and without PWM (5 μg/ml). The cells were washed once in C-BSS, and resuspended in 0.5 ml C-BCC with 5 μl of PI. Percent viable CD20 positive cells were determined by analysis on a FACScan using the LYSIS II software. Results are expressed as percent of total gated viable cells.
For viability determination of unfixed samples, 5 μl of a 500 mg/ml stock—solution of propidium iodide (PI) was added to the samples (0.5 ml)—immediately before acquisition.
A dose range of drug between 0.1-5.0 μg/ml was performed on PBMC enriched for B lymphocytes cultured for 48 hr with and without the mitogen PWM (FIG. 3). At the end of the culture period, the cells were washed, stained, and analyzed by flowcytometry for viable CD20 positive B lymphocytes.
For data set [3], the system named is B lymphocytes. The conditions noted are these: SAC + rIL-2, drug present 0-72 hr, 72-144 hr or continuously; results not shown. The method, then:
The B lymphocytes are cultured with SAC +rIL-2 under the following conditions:
1. 0 to 72 hr + drug (0.1-0.5 […]), wash, continue culture for additional 72 hr
2. 0 to 72 hr, wash, add drug for additional 72 hr culture
3. No drug for 6 days (wash at 3 days)
4. Drug in continuous culture for 6 days
At the end of the culture period, the supernatants are assayed for IgM, IgG, and IgM-RF.

Data set [4] deals with B lymphocytes. Nature of the data set: B lymphocyte proliferative response to mitogen after 18 hr drug pretreatment (3H-thymidine). The format is cell-based, human. The settings on record: 18 hr pretreatment; for % Suppression: B lymphocytes. The method, then:
(§1) In FIG. 1, freshly isolated PBMC were enriched for T and B lymphocytes using Nylon Wool (see Materials and Methods, Example A). The enriched lymphocyte subpopulations were then incubated for 18 hrs at 37° C. with various concentrations of drug. At the end of the pretreatment period, the cell samples were washed, adjusted to 2×10^5 viable cells/ml, and cultured at 1×10^4/well in flat (B cells) or round (T cells) bottomed 96 well microtiter plates in […]. The T cells were incubated for 3 days with PHA-P ([…]) or Con A (5 μg/ml) and the B cells were cultured for 6 days with either PWM (2 μg/ml) or SAC ({fraction (1/60,000)}). 1 μCi of ^3H-thymidine was added per well during the last 18 hr of culture. The wells were then harvested onto glass fiber filters, and counted in 7 ml of Cytoscint (ICN) on the LKB 1219 Rackbeta scintillation counter. The results are expressed as the mean cpm of triplicate wells.
(§2) Peripheral blood mononuclear cells obtained from normal donors as packed leukocyte preparations were enriched for T and B lymphocytes and pretreated with drug for 18 hrs prior to mitogen stimulation.
(§3) Peripheral blood mononuclear cells enriched for either T or B lymphocytes were incubated for 18 hrs in complete S-10 medium at 37° C. in 12×75 mm culture tubes at 5×10^5 cells/ml. The cells were then washed in S-10 and cultured in triplicate for either 3 (T lymphocytes) or 6 (B lymphocytes) days at 2.5×10^4/well in round bottom 96-well microtiter plates in S-10 medium at 37° C. and a 5% CO2 humidified atmosphere. The wells were pulsed with 1 μCi 3H-thymidine for the last 18 hr of culture, harvested onto glass fiber filters, and counted with 7 ml Cytoscint with a LKB Rackbeta scintillation counter. The results are reported as “percent Suppression”:
(§4) % Suppression={1−(mean cpm exp./mean cpm stim control)}×100

The subject of the next data set is B cell subtypes. The settings on record: 0.1-1.0 μg/ml for 48 hr, then 5 to 10 days SAC/rIL-2; data not shown. As for the experimental part:
B lymphocytes are incubated with drug (0.1-1.0 μg/ml) for 48 hr, followed by 5 to 10 days culture with SAC/rIL-2. The supernatant is then assayed at 5 and 10 days for IgM, IgG, and IgM-RF. Analyze the cells by flowcytometry at day 5 for CD20, CD20/CD5, CD5/sIgM, CD5/IgG, CD20/5/sIgM, and CD20/5 sIgG.

Data set [5] has as its system collagen-induced arthritis. The settings on record: 1 and 10 mg/kg/day injected days 0-10 or days 10-20.
Protocol: The study involves two treatment schedules (47). In Schedule I, FLP is injected on a daily basis on days 0-10 at doses of 1 and 10 mg/kg/day. In Schedule II, FLP is injected at days 10-20 at 1 and 10 mg/kg/day. […] Clinical, histological, EIA, and flowcytometry are employed to follow the progress of the disease.
The conditions of data set [6]: B-CLL patients; cited from earlier work.
For the next data set, the system named is T lymphocytes. The data set is described as follows: T lymphocyte proliferative response to mitogen after 18 hr drug pretreatment (3H-thymidine). The format is cell-based, human. The conditions noted are these: 18 hr pretreatment; for % Suppression: T lymphocytes. The method, then:
as §1, §2, §3, §4

Take `Nc1nc(Cl)nc2c1ncn2[C@H]1C[C@H](O)[C@@H](CO)O1` [2CDA, 2-chlorodeoxyadenosine]: the “levels giving growth inhibition” value in data set [1] is given as “nanomolar levels”.
With `Nc1nc(F)nc2c1ncn2[C@@H]1O[C@H](COP(=O)(O)O)[C@@H](O)[C@@H]1O` [FLP, fludarabine-5′-monophosphate], in data set [2], the “concentration at which effect on viable CD20 positive B lymphocytes becomes evident” value was 0.5 µg/mL. In addition, in the data set with B lymphocytes [3], the “part of the life cycle on which the drug has its primary effect” value is listed as “early stage B lymphocyte proliferation/differentiation”. In the data set on B lymphocytes [4] (FIG. 1B), the “suppression of B lymphocyte's ability to respond to mitogen” value is “suppress”. The “% Suppression” value came out at 59% in the data set with B lymphocytes [4] (PWM (1 μg/ml), BC5, 1 μg/ml of drug); 47% in the data set on B lymphocytes [4] (PWM (1 μg/ml), BC5, 5 μg/ml of drug); 11% in the data set with B lymphocytes [4] (PWM (1 μg/ml), BC6, 1 μg/ml of drug); 40% in the data set on B lymphocytes [4] (PWM (1 μg/ml), BC6, 5 μg/ml of drug); 16% with B lymphocytes [4] (PWM (1 μg/ml), BC7, 1 μg/ml of drug); 65% in the data set on B lymphocytes [4] (PWM (1 μg/ml), BC7, 5 μg/ml of drug). Besides, the “% Suppression” value in the data set on B lymphocytes [4] (SAC I (1/60,000), BC5, 1 μg/ml of drug) was found to be 14%; in the data set with B lymphocytes [4] (SAC I (1/60,000), BC5, 5 μg/ml of drug), 5%; in the data set on B lymphocytes [4] (SAC I (1/60,000), BC6, 1 μg/ml of drug), 0%; in the data set with B lymphocytes [4] (SAC I (1/60,000), BC6, 5 μg/ml of drug), 49%; with B lymphocytes [4] (SAC I (1/60,000), BC7, 1 μg/ml of drug) it was 55%; with B lymphocytes [4] (SAC I (1/60,000), BC7, 5 μg/ml of drug), 73%. In addition, the “% Suppression” value with T lymphocytes (CON A (5 μg/ml), BC5, 5 μg/ml of drug) is on record as 29%; with T lymphocytes (CON A (5 μg/ml), BC6, 1 μg/ml of drug) it was 4%; in the data set with T lymphocytes (CON A (5 μg/ml), BC6, 5 μg/ml of drug), 29%; with T lymphocytes (CON A (5 μg/ml), BC7, 1 μg/ml of drug) it was 16%; with T lymphocytes (CON A (5 μg/ml), BC7, 5 μg/ml of drug), 40%; with T lymphocytes (CON A (5 μg/ml), leukocyte preparation BC5, 1 μg/ml of drug), 6%. Besides, the “% Suppression” value was 24% in the data set with T lymphocytes (PHA-P (5 μg/ml), BC5, 1 μg/ml of drug); 32% in the data set on T lymphocytes (PHA-P (5 μg/ml), BC5, 5 μg/ml of drug); 0% in the data set on T lymphocytes (PHA-P (5 μg/ml), BC6, 1 μg/ml of drug); 15% with T lymphocytes (PHA-P (5 μg/ml), BC6, 5 μg/ml of drug); 25% in the data set on T lymphocytes (PHA-P (5 μg/ml), BC7, 1 μg/ml of drug); 50% in the data set on T lymphocytes (PHA-P (5 μg/ml), BC7, 5 μg/ml of drug). Besides, in the data set with B cell subtypes, the “sensitivity of B cell subtypes to drug” value is “CD5 positive B cells are found to be more sensitive”. For the same molecule, the “activity in arthritis model” value in data set [5] is reported as “active following onset of disease”. Moreover, the “peak concentration of F-ara-ATP in the lymphocytes relative to the serum peak” value in data set [6] is on record as 10 fold. In addition, the “suppression of T lymphocyte's ability to respond to mitogen” value with T lymphocytes (FIG. 1A) is on record as “suppress”.
